Assay results from ChEMBL document CHEMBL3885861, “Open TG-GATES”.

Species: Rattus norvegicus
Assay: Open TG-GATES - Regimen: Daily Repeat
Format: toxicity, organism-based, Sprague-Dawley
Parameters: regimen Daily Repeat, gender Male, age 6 weeks
Conditions: in vivo, po, 0 mg/kg, […], route gavage, dose level Control; for KIDNEY_L / KIDNEY_R / KIDNEY_TOTAL: tissue Kidney; for LIVER: tissue Liver; for A/G / ALP / ALT / AST / BUN / CRE / Ca / Cl / DBIL / GLC / IP / K / LDH / Na / PL / RALB / TBIL / TC / TG / TP / gamma-GTP: tissue Plasma

CN/C(=N/CCSCc1nc[nH]c1C)NC#N [CIMETIDINE]
Lym (tissue Blood, time 28 day): 79.2% | MCH (tissue Blood, time 28 day): 19.2 pg | MCHC (tissue Blood, time 28 day): 34.1% | MCV (tissue Blood, time 28 day): 56.4 fL | Mono (tissue Blood, time 28 day): 2.2% | Neu (tissue Blood, time 28 day): 16.6% | PT (tissue Blood, time 28 day): 12.9 s | Plat (tissue Blood, time 28 day): 99.1 x10_4/uL | RBC (tissue Blood, time 28 day): 784 x10_4/ul | Ret (tissue Blood, time 28 day): 2.6% | WBC (tissue Blood, time 28 day): 121.2 x10_2/uL | KIDNEY_L (time 7 day): 1.1 g | KIDNEY_R (time 7 day): 1.1 g | KIDNEY_TOTAL (time 7 day): 2.1 g | KIDNEY_L (time 14 day): 1.3 g | KIDNEY_R (time 14 day): 1.2 g | KIDNEY_TOTAL (time 14 day): 2.5 g | KIDNEY_L (time 28 day): 1.5 g | KIDNEY_R (time 28 day): 1.5 g | KIDNEY_TOTAL (time 28 day): 2.9 g | LIVER (time 7 day): 12.5 g | LIVER (time 14 day): 14.1 g | LIVER (time 28 day): 15.5 g | A/G (time 7 day): 1.5 | ALP (time 7 day): 1067.6 IU/L | ALT (time 7 day): 33.2 IU/L | AST (time 7 day): 62.4 IU/L | BUN (time 7 day): 16.6 mg/dL | CRE (time 7 day): 0.4 mg/dL | Ca (time 7 day): 10.7 mg/dL | Cl (time 7 day): 103.2 meq/L | DBIL (time 7 day): 0.1 mg/dL | GLC (time 7 day): 236.6 mg/dL | IP (time 7 day): 8 mg/dL | K (time 7 day): 3.9 meq/L | LDH (time 7 day): 165.2 IU/L | Na (time 7 day): 141.2 meq/L | PL (time 7 day): 156.4 mg/dL | RALB (time 7 day): 3.4 g/dL | TBIL (time 7 day): 0.2 mg/dL | TC (time 7 day): 73.6 mg/dL | TG (time 7 day): 138.8 mg/dL | TP (time 7 day): 5.7 g/dL | gamma-GTP (time 7 day): 1 IU/L | A/G (time 14 day): 1.4 | ALP (time 14 day): 861.4 IU/L | ALT (time 14 day): 41.4 IU/L | AST (time 14 day): 72.8 IU/L | BUN (time 14 day): 17 mg/dL | CRE (time 14 day): 0.4 mg/dL | Ca (time 14 day): 10.6 mg/dL | Cl (time 14 day): 102.6 meq/L | DBIL (time 14 day): 0.1 mg/dL | GLC (time 14 day): 215.2 mg/dL | IP (time 14 day): 7.4 mg/dL | K (time 14 day): 4.1 meq/L | LDH (time 14 day): 169.6 IU/L | Na (time 14 day): 141.4 meq/L | PL (time 14 day): 155.6 mg/dL | RALB (time 14 day): 3.4 g/dL | TBIL (time 14 day): 0.2 mg/dL | TC (time 14 day): 70.8 mg/dL | TG (time 14 day): 168.4 mg/dL | TP (time 14 day): 5.9 g/dL | gamma-GTP (time 14 day): 1 IU/L | A/G (time 28 day): 1.2 | ALP (time 28 day): 772.6 IU/L | ALT (time 28 day): 31 IU/L | AST (time 28 day): 59.6 IU/L | BUN (time 28 day): 16.2 mg/dL | CRE (time 28 day): 0.5 mg/dL | Ca (time 28 day): 10.1 mg/dL | Cl (time 28 day): 102.4 meq/L | DBIL (time 28 day): 0.1 mg/dL | GLC (time 28 day): 235.6 mg/dL | IP (time 28 day): 6.6 mg/dL | K (time 28 day): 3.6 meq/L | LDH (time 28 day): 151.6 IU/L | Na (time 28 day): 140.6 meq/L | PL (time 28 day): 137.4 mg/dL | RALB (time 28 day): 3.3 g/dL | TBIL (time 28 day): 0.2 mg/dL | TC (time 28 day): 61.8 mg/dL | TG (time 28 day): 119.8 mg/dL | TP (time 28 day): 6 g/dL | gamma-GTP (time 28 day): 1 IU/L
